# Assay results from patent US8545851B2, “Composition for improving inflammatory disease using ABH antigens” (SNU R&DB Foundation, priority 2009, dated 2013).
# System: B antigen expression in HaCaT cells harboring B antigen
# Assay: Effect of ABH antigen-constituting monosaccharides and mixtures on B antigen expression, Western blotting
# Assay type: cell-based
# Conditions: HaCaT cells, 0.1, 1 and 10 μM, 24 hours
# Method: HaCaT cells harboring B antigen was treated respectively with FGG and FGGN mixture and FG (Fucose:Galactose=1:1, H-antigen composition) mixture which compose A, B, and H antigen, and also glucose, galactose, fucose, N-acetylgalactosamine and N-acetylglucosamine which are monosaccharides that constitute A, B, and H antigen at different concentrations of 0.1, 1, and 10 μM for 24 hours. Western blotting was performed to investigate the expression of B antigen. As a result, the expression of B antigen was increased in every case above (FIG. 9).
smiles,measurement,value
CC(=O)N[C@H]1C(O)O[C@H](CO)[C@@H](O)[C@@H]1O (stereo partly shown) [N-acetylglucosamine],expression of B antigen,increased
C[C@H](O)[C@@H](O)[C@@H](O)[C@H](O)C=O [fucose],expression of B antigen,increased
O=C[C@H](O)[C@@H](O)[C@@H](O)[C@H](O)CO [galactose],expression of B antigen,increased
CC(=O)N[C@H]1C(O)O[C@H](CO)[C@H](O)[C@@H]1O (stereo partly shown) [N-acetylgalactosamine],expression of B antigen,increased
